Results reported in patent publication US8148391B2 (Cephalon, Inc., priority 2006, dated 2012).
Like-named read-outs stand apart in the source and are kept apart here. Each block holds one molecule with its values, some of them ahead of it.

Experiments:
[1] = biological target: T1, baculovirus-expressed ALK (Homo sapiens, UniProt Q9UM73); test: ALK Kinase Assay (ELISA-type, time-resolved fluorescence); format: biochemical
T1 construct: host or cells: baculovirus expression system
Summary of the method: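 Substrate coating: phospholipase C-γ, 10 μg/mL in TBS. Kinase step: 30 ng/ml ALK, 15 min, 37° C. Detection and analysis: Eu-N1 PT66 antibody, with IC50 fitted as a sigmoidal variable-slope dose-response curve.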

[2] = biological target: T2, c-Met (cytoplasmic domain) (Homo sapiens, UniProt P08581); test: c-Met Kinase Assay (same methods as for ALK, with modifications); format: biochemical
T2 construct: 10 ng/mL c-Met (cytoplasmic domain, Invitrogen Corporation #PV3143); purchased Invitrogen Corporation PV3143
Summary of the method: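 This plate-based kinase format uses immobilized phospholipase C-γ as substrate, phosphorylated by c-Met cytoplasmic domain (10 ng/mL) at 37° C for 15 minutes.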

[3] = 1 μM ATP (Km level), read-out: ALK Activity (ALK Kinase Inhibition, IC50)
[4] = 1 μM ATP (Km level), read-out: cMet Activity (c-Met Kinase Inhibition, IC50)
[5] = 1 μM ATP (Km level), 30 ng/ml ALK, 37° C., 15 minutes, read-out: ALK Activity (ALK kinase inhibition, IC50 class)
[6] = 1 μM ATP (Km level), 10 ng/mL c-Met, read-out: cMet Activity (c-Met kinase inhibition, IC50 class)
[7] = ALK kinase inhibition, 1 μM ATP, read-out: ALK Activity
[8] = c-Met kinase inhibition, 1 μM ATP, read-out: cMet Activity
[9] = ALK kinase inhibition, 1 μM ATP (Km level), read-out: ALK Activity
[10] = c-Met kinase inhibition, 1 μM ATP (Km level), read-out: cMet Activity

T2 sequence (P08581 956-1390 limits assumed): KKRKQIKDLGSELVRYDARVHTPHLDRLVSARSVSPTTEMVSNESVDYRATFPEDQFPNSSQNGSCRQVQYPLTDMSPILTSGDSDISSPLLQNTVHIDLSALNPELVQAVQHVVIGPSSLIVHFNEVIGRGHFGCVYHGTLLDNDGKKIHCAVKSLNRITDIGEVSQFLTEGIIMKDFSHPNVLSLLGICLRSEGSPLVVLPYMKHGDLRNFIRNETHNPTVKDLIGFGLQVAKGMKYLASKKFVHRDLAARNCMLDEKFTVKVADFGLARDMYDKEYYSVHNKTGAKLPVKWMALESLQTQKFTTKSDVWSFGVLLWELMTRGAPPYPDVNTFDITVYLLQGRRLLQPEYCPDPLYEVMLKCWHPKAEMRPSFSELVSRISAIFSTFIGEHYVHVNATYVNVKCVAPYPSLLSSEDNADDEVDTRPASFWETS
T1 sequence (Q9UM73 19-1620): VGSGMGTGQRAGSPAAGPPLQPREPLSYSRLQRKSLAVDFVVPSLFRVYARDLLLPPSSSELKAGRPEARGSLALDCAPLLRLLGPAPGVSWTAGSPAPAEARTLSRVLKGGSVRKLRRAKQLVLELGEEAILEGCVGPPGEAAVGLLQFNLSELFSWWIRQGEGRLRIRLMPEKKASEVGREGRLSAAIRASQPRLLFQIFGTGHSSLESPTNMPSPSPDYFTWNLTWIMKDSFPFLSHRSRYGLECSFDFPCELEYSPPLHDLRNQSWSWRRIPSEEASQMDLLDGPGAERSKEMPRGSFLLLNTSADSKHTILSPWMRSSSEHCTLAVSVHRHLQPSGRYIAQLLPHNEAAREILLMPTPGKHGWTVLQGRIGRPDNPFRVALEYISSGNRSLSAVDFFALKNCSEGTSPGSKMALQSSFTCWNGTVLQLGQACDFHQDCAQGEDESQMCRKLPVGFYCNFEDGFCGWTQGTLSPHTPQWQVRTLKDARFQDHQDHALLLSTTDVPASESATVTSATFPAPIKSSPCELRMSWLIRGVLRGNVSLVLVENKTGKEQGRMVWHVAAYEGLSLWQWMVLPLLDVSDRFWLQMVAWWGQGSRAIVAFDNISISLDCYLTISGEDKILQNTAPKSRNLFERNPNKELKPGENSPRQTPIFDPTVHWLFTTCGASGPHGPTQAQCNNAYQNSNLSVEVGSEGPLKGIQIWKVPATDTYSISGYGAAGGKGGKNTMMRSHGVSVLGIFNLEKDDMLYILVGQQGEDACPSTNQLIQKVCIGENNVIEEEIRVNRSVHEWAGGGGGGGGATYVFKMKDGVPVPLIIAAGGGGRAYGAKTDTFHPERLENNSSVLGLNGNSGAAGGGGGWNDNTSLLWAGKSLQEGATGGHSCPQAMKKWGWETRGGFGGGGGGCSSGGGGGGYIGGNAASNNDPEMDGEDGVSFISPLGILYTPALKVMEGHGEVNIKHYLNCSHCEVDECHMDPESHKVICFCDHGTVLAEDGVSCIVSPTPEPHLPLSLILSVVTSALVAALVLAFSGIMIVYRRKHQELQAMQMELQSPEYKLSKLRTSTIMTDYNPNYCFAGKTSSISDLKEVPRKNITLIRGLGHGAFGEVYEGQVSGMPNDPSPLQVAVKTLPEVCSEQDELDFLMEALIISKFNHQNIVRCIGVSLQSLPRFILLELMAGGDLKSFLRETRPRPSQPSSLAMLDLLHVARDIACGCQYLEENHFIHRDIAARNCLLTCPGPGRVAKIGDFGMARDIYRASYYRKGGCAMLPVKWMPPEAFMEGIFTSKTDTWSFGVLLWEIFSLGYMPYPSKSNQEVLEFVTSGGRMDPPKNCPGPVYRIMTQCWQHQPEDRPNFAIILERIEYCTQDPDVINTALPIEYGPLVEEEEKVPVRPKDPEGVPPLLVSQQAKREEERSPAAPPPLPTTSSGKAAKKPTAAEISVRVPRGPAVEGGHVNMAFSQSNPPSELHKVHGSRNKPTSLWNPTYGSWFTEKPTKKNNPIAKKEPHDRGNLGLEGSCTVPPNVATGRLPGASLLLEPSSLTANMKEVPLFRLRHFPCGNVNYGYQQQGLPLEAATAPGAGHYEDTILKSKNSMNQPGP

Structure (SMILES): CN1CCN(C2CCc3ccc(Nc4ncc(Cl)c(N[C@@H]5CCCC[C@H]5NS(C)(=O)=O)n4)cc3CC2)CC1 (stereo partly drawn) [Example 888, N-((1R,2R)-2-{5-Chloro-2-[7-(4-methyl-piperazin-1-yl)-6,7,8,9-tetrahydro-5H-benzocyclohepten-2-ylamino]-pyrimidin-4-ylamino}-cyclohexyl)-methanesulfonamide]
IC50 [1, 3]: < 100 nM
IC50 [2, 4]: 1000 to 10000 nM

Structure (SMILES): CNC(=O)c1scc(C)c1Nc1nc(Nc2ccc3c(c2)NC(=O)CN(C)C3)ncc1Cl [Example 1868, 3-[5-Chloro-2-(4-methyl-2-oxo-2,3,4,5-tetrahydro-1H-benzo[e][1,4]diazepin-8-ylamino)-pyrimidin-4-ylamino]-4-methyl-thiophene-2-carboxylic acid methylamide]
IC50 [1, 7]: 100 to 1000 nM
IC50 [2, 8]: < 100 nM

Structure (SMILES): CN1C(=O)CCC(C)(C)c2cc(Nc3ncc(Cl)c(Nc4ccccc4-n4cccn4)n3)ccc21 [Example 1323, 7-[5-Chloro-4-(2-pyrazol-1-yl-phenylamino)-pyrimidin-2-ylamino]-1,5,5-trimethyl-1,3,4,5-tetrahydro-benzo[b]azepin-2-one]
IC50 [1, 5]: < 100 nM
IC50 [2, 6]: 100 to 1000 nM

Structure (SMILES): CCNC(=O)c1ccccc1Nc1nc(Nc2cc3c(cc2OC)CC(=O)N(CC)CC3)ncc1Cl [Example 255, 2-[5-Chloro-2-(3-ethyl-8-methoxy-2-oxo-2,3,4,5-tetrahydro-1H-benzo[d]azepin-7-ylamino)-pyrimidin-4-ylamino]-N-ethyl-benzamide]
IC50 [1, 9]: < 100 nM
IC50 [2, 10]: > 10000 nM

Structure (SMILES): CCN1CCCOc2ccc(Nc3ncc(Cl)c(Nc4ccsc4C(=O)NC)n3)cc21 [Example 1698, 3-[5-Chloro-2-(9-ethyl-6,7,8,9-tetrahydro-5-oxa-9-aza-benzocyclohepten-2-ylamino)-pyrimidin-4-ylamino]-thiophene-2-carboxylic acid methyl amide]
IC50 [1, 7]: 100 to 1000 nM
IC50 [2, 8]: 100 to 1000 nM

Structure (SMILES): COc1cc2c(cc1Nc1ncc(Cl)c(Nc3ccccc3S(=O)(=O)N3CC[C@H](O)C3)n1)CCN(C[C@@H](C)O)CC2 [Example 1556, (S)-1-(2-{5-Chloro-2-[3-((R)-2-hydroxy-propyl)-8-methoxy-2,3,4,5-tetrahydro-1H-3-benzazepin-7-ylamino]-pyrimidin-4-ylamino}-benzenesulfonyl)-pyrrolidin-3-ol]
IC50 [1, 7]: < 100 nM
IC50 [2, 8]: 1000 to 10000 nM

Structure (SMILES): CCNc1nnc(-c2ccccc2Nc2nc(Nc3ccc4c(c3)CCOC(=O)N4C)ncc2Cl)o1 [Example 1783, 2-{5-Chloro-4-[2-(5-ethylamino-[1,3,4]oxadiazol-2-yl)-phenylamino]-pyrimidin-2-ylamino}-5-methyl-8,9-dihydro-5H-7-oxa-5-aza-benzocyclohepten-6-one]
IC50 [1, 7]: 1000 to 10000 nM
IC50 [2, 8]: 100 to 1000 nM

Structure (SMILES): CCN1CCc2ccc(Nc3ncc(Cl)c(Nc4ccccc4OCC#N)n3)cc2CC1 [Example 928, {2-[5-Chloro-2-(3-ethyl-2,3,4,5-tetrahydro-1H-benzo[d]azepin-7-ylamino)-pyrimidin-4-ylamino]-phenoxy}-acetonitrile]
IC50 [1, 3]: < 100 nM
IC50 [2, 4]: < 100 nM

Structure (SMILES): CCN1CCc2cc(Nc3ncc(Cl)c(Nc4ccc(N5CCOCC5)cc4OC)n3)c(OC)cc2CC1=O [Example 254, 7-[5-Chloro-4-(2-methoxy-4-morpholin-4-yl-phenylamino)-pyrimidin-2-ylamino]-3-ethyl-8-methoxy-1,3,4,5-tetrahydro-benzo[d]azepin-2-one]
IC50 [1, 9]: < 100 nM
IC50 [2, 10]: > 10000 nM

Structure (SMILES): CNC(=O)c1ccccc1Nc1nc(Nc2cccc3c2N(C)CCNC3=O)ncc1Cl [Example 544, 2-[5-Chloro-2-(1-methyl-5-oxo-2,3,4,5-tetrahydro-1H-benzo[e][1,4]diazepin-9-ylamino)pyrimidin-4-ylamino]-N-methyl-benzamide]
IC50 [1, 3]: < 100 nM
IC50 [2, 4]: > 10000 nM

Structure (SMILES): CCN1CCNC(=O)c2ccc(Nc3ncc(Cl)c(N[C@@H]4CCCC[C@H]4NS(C)(=O)=O)n3)cc21 [Example 1451, N-{(1R,2R)-2-[5-Chloro-2-(1-ethyl-5-oxo-2,3,4,5-tetrahydro-1H-benzo[e][1,4]diazepin-8-ylamino)-pyrimidin-4-ylamino]-cyclohexyl}-methanesulfonamide]
IC50 [1, 7]: < 100 nM
IC50 [2, 8]: 100 to 1000 nM

Structure (SMILES): CNS(=O)(=O)c1ccccc1Nc1nc(Nc2ccc3c(c2)CCN(CCOC)CC3)ncc1Cl [Example 35, 2-{5-Chloro-2-[3-(2-methoxy-ethyl)-2,3,4,5-tetrahydro-1H-benzo[d]azepin-7-ylamino]-pyrimidin-4-ylamino}-N-methyl-benzenesulfonamide]
IC50 [1, 9]: < 100 nM
IC50 [2, 10]: 100 to 1000 nM

Structure (SMILES): C#CCNC(=O)c1cccc(F)c1Nc1nc(Nc2ccc3c(c2)N(C(C)C)CCCC3(C)C)ncc1Cl [Example 1627, 2-[5-Chloro-2-(1-isopropyl-5,5-dimethyl-2,3,4,5-tetrahydro-1H-benzo[b]azepin-8-ylamino)-pyrimidin-4-ylamino]-3-fluoro-N-prop-2-ynyl-benzamide]
IC50 [1, 7]: 1000 to 10000 nM
IC50 [2, 8]: 1000 to 10000 nM

Structure (SMILES): COCCN1CCc2cc(Nc3ncc(Cl)c(NC4C5C=CC(C5)C4C(N)=O)n3)c(OC)cc2CC1 (stereo not drawn) [Example 112, (2-exo,3-exo)-3-{5-Chloro-2-[8-methoxy-3-(2-methoxy-ethyl)-2,3,4,5-tetrahydro-1H-benzo[d]azepin-7-ylamino]-pyrimidin-4-ylamino}-bicyclo[2.2.1]hept-5-ene-2-carboxylic acid amide]
IC50 [1, 9]: < 100 nM
IC50 [2, 10]: > 10000 nM

Now from value to molecule:

IC50 [1, 3]: < 100 nM
IC50 [2, 4]: 100 to 1000 nM
Structure (SMILES): NC(=O)[C@@H]1[C@H](Nc2nc(Nc3ccc4c(c3)CCC(N3CCOCC3)CC4)ncc2Cl)[C@H]2C=C[C@@H]1C2 (single isomer, unassigned) [Example 681]

IC50 [1, 5]: < 100 nM
IC50 [2, 6]: 1000 to 10000 nM
Structure (SMILES): COCCN1CCc2cc(Nc3ncc(Cl)c(Nc4ccccc4S(=O)(=O)N(C)C)n3)c(OC)cc2CC1 [Example 1165, 2-{5-Chloro-2-[8-methoxy-3-(2-methoxy-ethyl)-2,3,4,5-tetrahydro-1H-benzo[d]azepin-7-ylamino]-pyrimidin-4-ylamino}-N,N-dimethyl-benzenesulfonamide]

IC50 [1, 3]: < 100 nM
IC50 [2, 4]: 100 to 1000 nM
Structure (SMILES): COc1ccc(Nc2nc(Nc3ccc4c(c3)CCN(CC3COCCO3)CC4)ncc2Cl)c(-n2cccn2)c1 (stereo not drawn) [Example 642, 5-Chloro-N*2*-(3-[1,4]dioxan-2-ylmethyl-2,3,4,5-tetrahydro-1H-benzo[d]azepin-7-yl)-N*4*-(4-methoxy-2-pyrazol-1-yl-phenyl)-pyrimidine-2,4-diamine]

IC50 [1, 9]: < 100 nM
IC50 [2, 10]: > 10000 nM
Structure (SMILES): COCCN1C(=O)CCCc2c1ccc(Nc1ncc(Cl)c(Nc3ccc(N4CCOCC4)cc3OC)n1)c2OC [Example 127, 7-[5-Chloro-4-(2-methoxy-4-morpholin-4-yl-phenylamino)-pyrimidin-2-ylamino]-6-methoxy-1-(2-methoxy-ethyl)-1,3,4,5-tetrahydro-benzo[b]azepin-2-one]

IC50 [1, 5]: 100 to 1000 nM
IC50 [2, 6]: 100 to 1000 nM
Structure (SMILES): CNC(=O)c1cc(F)cc(F)c1Nc1nc(Nc2ccc3c(c2)CCN(CCOC)CC3)ncc1Cl [Example 1277, 2-{5-Chloro-2-[3-(2-methoxy-ethyl)-2,3,4,5-tetrahydro-1H-3-benzazepin-7-ylamino]-pyrimidin-4-ylamino}-3,5-difluoro-N-methyl-benzamide]

IC50 [1, 9]: 100 to 1000 nM
IC50 [2, 10]: > 10000 nM
Structure (SMILES): CCN1C(=O)CCCc2c1ccc(Nc1ncc(Cl)c(N[C@@H]3CCC[C@H]3NS(C)(=O)=O)n1)c2OC (relative stereo) [Example 374, N-{trans-2-[5-Chloro-2-(1-ethyl-6-methoxy-2-oxo-2,3,4,5-tetrahydro-1H-benzo[b]azepin-7-ylamino)-pyrimidin-4-ylamino]-cyclopentyl}-methanesulfonamide]

IC50 [1, 9]: < 100 nM
IC50 [2, 10]: 1000 to 10000 nM
Structure (SMILES): CCN1C(=O)C(C)(C)CCc2c1ccc(Nc1ncc(Cl)c(Nc3ccccc3C(=O)NC)n1)c2OC [Example 144, 2-[5-Chloro-2-(1-ethyl-6-methoxy-3,3-dimethyl-2-oxo-2,3,4,5-tetrahydro-1H-benzo[b]azepin-7-ylamino)-pyrimidin-4-ylamino]-N-methyl-benzamide]

IC50 [1, 7]: < 100 nM
IC50 [2, 8]: > 10000 nM
Structure (SMILES): COc1cc2c(cc1Nc1ncc(Cl)c(Nc3cccc(OCC#N)c3)n1)CCOC(=O)N2C [Example 1510, {3-[5-Chloro-2-(3-methoxy-5-methyl-6-oxo-5,6,8,9-tetrahydro-7-oxa-5-aza-benzocyclohepten-2-ylamino)-pyrimidin-4-ylamino]-phenoxy}-acetonitrile]

IC50 [1, 9]: < 100 nM
IC50 [2, 10]: < 100 nM
Structure (SMILES): CNS(=O)(=O)c1ccccc1Nc1nc(Nc2ccc3c(c2)CCCC(=O)N3)ncc1Cl [Example 5, 2-[5-Chloro-2-(2-oxo-2,3,4,5-tetrahydro-1H-benzo[b]azepin-7-ylamino)-pyrimidin-4-ylamino]-N-methyl-benzenesulfonamide]

IC50 [1, 9]: < 100 nM
IC50 [2, 10]: < 100 nM
Structure (SMILES): CNC(=O)c1cccc(F)c1Nc1nc(Nc2ccc3c(c2)N(C(C)=O)CC(=O)NC3)ncc1Cl [Example 1877, 2-[2-(1-Acetyl-3-oxo-2,3,4,5-tetrahydro-1H-benzo[e][1,4]diazepin-8-ylamino)-5-chloro-pyrimidin-4-ylamino]-3-fluoro-N-methyl-benzamide]
